From patent US6413733B1, “Stabilized reagent and method for determining creatine kinase” (Roche Diagnostics GmbH, priority 1997, dated 2002)

Tests used:
Assay type in all cases: biochemical
G6P-DH [1] = assay: G6P-DH stability in the reagent with Na2SO3, 14 days storage (example 1); conditions: for G6P-DH stability, 35° C. compared to 2 to 8° C.: 14 days storage
Description: (§1) For the determination 250 μl R1 is mixed with 10 μl sample, incubated for 5 minutes, the reaction is started with 50 μl R2 and the CK activity is measured after incubating for a further 1 minute. The CK or G6P-DH enzyme activity was determined after storage at 2 to 8° C. or 35° C. for various periods (table 1-3,FIGS. 1-3).

G6P-DH [2] = assay: Long-term stability G6P-DH, 10 mmol/l DTT compared to 1 mmol/l Na2SO3
Description: as §1
The reagent R was combined with the sample to be measured as described in example 1 and the corresponding enzyme activities were determined (table 5,FIG. 5).

creatine kinase (CK) [3] = assay: Influence of the amount of sulfite on the CK activity (example 2)
Description: as §1
The reagent composition and the test procedure are essentially analogous to example 1. Only the amount of sodium sulfite (0 to 20 mmol/l) added to reagent 1 was varied.

creatine kinase (CK) [4] = assay: CK functional stability of the reagent with Na2SO3 (example 1); conditions: for CK functional stability, 35° C. compared to 2 to 8° C.: 14 days storage
Description: as §1

creatine kinase (CK) [5] = assay: Regeneration of the CK in R1 by adding sulfite in R2 (example 4); conditions: 10 mmol/l sulfite in R2
Description: as §1
The mixing of R1, R2 and the respective sample and the subsequent determination were carried out according to example 1.

[6] = 1 mmol/l sulfite, example 1, 0 days at 2 to 8° C.
[7] = 1 mmol/l sulfite, example 1, 55 days at 2 to 8° C.
[8] = 1 mmol/l sulfite, example 1, 85 days at 2 to 8° C.
[9] = 1 mmol/l sulfite, example 1, 114 days at 2 to 8° C.
[10] = 1 mmol/l sulfite, example 1, 136 days at 2 to 8° C.
[11] = 1 mmol/l sulfite, example 1, 192 days at 2 to 8° C.
[12] = 1 mmol/l sulfite, example 1, 220 days at 2 to 8° C.
[13] = 1 mmol/l sulfite, example 1, 308 days at 2 to 8° C.
[14] = 1 mmol/l sulfite, example 1, 345 days at 2 to 8° C.
[15] = 1 mmol/l sulfite, example 1, 451 days at 2 to 8° C.
[16] = 1 mmol/l Na2SO3 in reagent 1, sample 1
[17] = 1 mmol/l Na2SO3 in reagent 1, sample 2
[18] = 2 mmol/l Na2SO3 in reagent 1, sample 1
[19] = 2 mmol/l Na2SO3 in reagent 1, sample 2
[20] = 3 mmol/l Na2SO3 in reagent 1, sample 1
[21] = 3 mmol/l Na2SO3 in reagent 1, sample 2
[22] = 4 mmol/l Na2SO3 in reagent 1, sample 1
[23] = 4 mmol/l Na2SO3 in reagent 1, sample 2
[24] = 10 mmol/l DTT, example 3, 0 days at 2 to 8° C.
[25] = 10 mmol/l DTT, example 3, 55 days at 2 to 8° C.
[26] = 10 mmol/l DTT, example 3, 85 days at 2 to 8° C.
[27] = 10 mmol/l DTT, example 3, 114 days at 2 to 8° C.
[28] = 10 mmol/l DTT, example 3, 136 days at 2 to 8° C.
[29] = 10 mmol/l DTT, example 3, 192 days at 2 to 8° C.
[30] = 10 mmol/l DTT, example 3, 220 days at 2 to 8° C.

O=S([O-])[O-].[Na+].[Na+] [Na2SO3, sodium sulfite]
G6P-DH activity, 14 days storage at 2 to 8° C. (G6P-DH [1]; 1 mmol/l Na2SO3 in reagent 1): 3.95 U/l
G6P-DH activity, 14 days storage at 35° C. (G6P-DH [1]; 1 mmol/l Na2SO3 in reagent 1): 1.50 U/l
G6P-DH stability, 35° C. compared to 2 to 8° C. (G6P-DH [1]; 1 mmol/l Na2SO3 in reagent 1): 38.1%
G6P-DH activity, 14 days storage at 2 to 8° C. (G6P-DH [1]; 2 mmol/l Na2SO3 in reagent 1): 3.92 U/l
G6P-DH activity, 14 days storage at 35° C. (G6P-DH [1]; 2 mmol/l Na2SO3 in reagent 1): 1.57 U/l
G6P-DH stability, 35° C. compared to 2 to 8° C. (G6P-DH [1]; 2 mmol/l Na2SO3 in reagent 1): 39.9%
G6P-DH activity, 14 days storage at 2 to 8° C. (G6P-DH [1]; 3 mmol/l Na2SO3 in reagent 1): 3.98 U/l
G6P-DH activity, 14 days storage at 35° C. (G6P-DH [1]; 3 mmol/l Na2SO3 in reagent 1): 1.69 U/l
G6P-DH stability, 35° C. compared to 2 to 8° C. (G6P-DH [1]; 3 mmol/l Na2SO3 in reagent 1): 42.5%
G6P-DH activity, 14 days storage at 2 to 8° C. (G6P-DH [1]; 4 mmol/l Na2SO3 in reagent 1): 4.06 U/l
G6P-DH activity, 14 days storage at 35° C. (G6P-DH [1]; 4 mmol/l Na2SO3 in reagent 1): 1.76 U/l
G6P-DH stability, 35° C. compared to 2 to 8° C. (G6P-DH [1]; 4 mmol/l Na2SO3 in reagent 1): 43.5%
G6P-DH activity (G6P-DH [2]; [6]): 3.68 U/ml
G6P-DH activity relative to day 0 (G6P-DH [2]; [6]): 100.0%
G6P-DH activity (G6P-DH [2]; [7]): 3.65 U/ml
G6P-DH activity relative to day 0 (G6P-DH [2]; [7]): 99.2%
G6P-DH activity (G6P-DH [2]; [8]): 3.77 U/ml
G6P-DH activity relative to day 0 (G6P-DH [2]; [8]): 102.3%
G6P-DH activity (G6P-DH [2]; [9]): 3.57 U/ml
G6P-DH activity relative to day 0 (G6P-DH [2]; [9]): 96.9%
G6P-DH activity (G6P-DH [2]; [10]): 3.35 U/ml
G6P-DH activity relative to day 0 (G6P-DH [2]; [10]): 91.0%
G6P-DH activity (G6P-DH [2]; [11]): 3.15 U/ml
G6P-DH activity relative to day 0 (G6P-DH [2]; [11]): 85.5%
G6P-DH activity (G6P-DH [2]; [12]): 3.12 U/ml
G6P-DH activity relative to day 0 (G6P-DH [2]; [12]): 84.7%
G6P-DH activity (G6P-DH [2]; [13]): 2.98 U/ml
G6P-DH activity relative to day 0 (G6P-DH [2]; [13]): 80.9%
G6P-DH activity (G6P-DH [2]; [14]): 2.65 U/ml
G6P-DH activity relative to day 0 (G6P-DH [2]; [14]): 72.0%
G6P-DH activity (G6P-DH [2]; [15]): 2.12 U/ml
G6P-DH activity relative to day 0 (G6P-DH [2]; [15]): 57.6%
CK activity, Sample 1 (creatine kinase (CK) [3]; sulfite 1 mmol/l test): 242 U/l
CK activity, Sample 2 (creatine kinase (CK) [3]; sulfite 1 mmol/l test): 530 U/l
CK function relative to 0 mmol/l sulfite, Sample 1 (creatine kinase (CK) [3]; sulfite 1 mmol/l test): 102.9%
CK function relative to 0 mmol/l sulfite, Sample 2 (creatine kinase (CK) [3]; sulfite 1 mmol/l test): 100.2%
CK activity, Sample 1 (creatine kinase (CK) [3]; sulfite 2 mmol/l test): 239 U/l
CK activity, Sample 2 (creatine kinase (CK) [3]; sulfite 2 mmol/l test): 520 U/l
CK function relative to 0 mmol/l sulfite, Sample 1 (creatine kinase (CK) [3]; sulfite 2 mmol/l test): 101.4%
CK function relative to 0 mmol/l sulfite, Sample 2 (creatine kinase (CK) [3]; sulfite 2 mmol/l test): 98.4%
CK activity, Sample 1 (creatine kinase (CK) [3]; sulfite 3 mmol/l test): 236 U/l
CK activity, Sample 2 (creatine kinase (CK) [3]; sulfite 3 mmol/l test): 514 U/l
CK function relative to 0 mmol/l sulfite, Sample 1 (creatine kinase (CK) [3]; sulfite 3 mmol/l test): 100.3%
CK function relative to 0 mmol/l sulfite, Sample 2 (creatine kinase (CK) [3]; sulfite 3 mmol/l test): 97.2%
CK activity, Sample 1 (creatine kinase (CK) [3]; sulfite 4 mmol/l test): 227 U/l
CK activity, Sample 2 (creatine kinase (CK) [3]; sulfite 4 mmol/l test): 496 U/l
CK function relative to 0 mmol/l sulfite, Sample 1 (creatine kinase (CK) [3]; sulfite 4 mmol/l test): 96.4%
CK function relative to 0 mmol/l sulfite, Sample 2 (creatine kinase (CK) [3]; sulfite 4 mmol/l test): 93.8%
CK activity, Sample 1 (creatine kinase (CK) [3]; sulfite 5 mmol/l test): 215 U/l
CK activity, Sample 2 (creatine kinase (CK) [3]; sulfite 5 mmol/l test): 504 U/l
CK function relative to 0 mmol/l sulfite, Sample 1 (creatine kinase (CK) [3]; sulfite 5 mmol/l test): 91.3%
CK function relative to 0 mmol/l sulfite, Sample 2 (creatine kinase (CK) [3]; sulfite 5 mmol/l test): 95.3%
CK activity, Sample 1 (creatine kinase (CK) [3]; sulfite 10 mmol/l test): 196 U/l
CK activity, Sample 2 (creatine kinase (CK) [3]; sulfite 10 mmol/l test): 464 U/l
CK function relative to 0 mmol/l sulfite, Sample 1 (creatine kinase (CK) [3]; sulfite 10 mmol/l test): 83.2%
CK function relative to 0 mmol/l sulfite, Sample 2 (creatine kinase (CK) [3]; sulfite 10 mmol/l test): 87.7%
CK activity, Sample 1 (creatine kinase (CK) [3]; sulfite 20 mmol/l test): 182 U/l
CK activity, Sample 2 (creatine kinase (CK) [3]; sulfite 20 mmol/l test): 441 U/l
CK function relative to 0 mmol/l sulfite, Sample 1 (creatine kinase (CK) [3]; sulfite 20 mmol/l test): 77.3%
CK function relative to 0 mmol/l sulfite, Sample 2 (creatine kinase (CK) [3]; sulfite 20 mmol/l test): 83.3%
CK activity, 14 days storage at 2 to 8° C. (creatine kinase (CK) [4]; [16]): 278 U/l
CK activity, 14 days storage at 35° C. (creatine kinase (CK) [4]; [16]): 267 U/l
CK functional stability, 35° C. compared to 2 to 8° C. (creatine kinase (CK) [4]; [16]): 96.0%
CK activity, 14 days storage at 2 to 8° C. (creatine kinase (CK) [4]; [17]): 540 U/l
CK activity, 14 days storage at 35° C. (creatine kinase (CK) [4]; [17]): 512 U/l
CK functional stability, 35° C. compared to 2 to 8° C. (creatine kinase (CK) [4]; [17]): 94.8%
CK activity, 14 days storage at 2 to 8° C. (creatine kinase (CK) [4]; [18]): 274 U/l
CK activity, 14 days storage at 35° C. (creatine kinase (CK) [4]; [18]): 265 U/l
CK functional stability, 35° C. compared to 2 to 8° C. (creatine kinase (CK) [4]; [18]): 97.0%
CK activity, 14 days storage at 2 to 8° C. (creatine kinase (CK) [4]; [19]): 530 U/l
CK activity, 14 days storage at 35° C. (creatine kinase (CK) [4]; [19]): 510 U/l
CK functional stability, 35° C. compared to 2 to 8° C. (creatine kinase (CK) [4]; [19]): 96.2%
CK activity, 14 days storage at 2 to 8° C. (creatine kinase (CK) [4]; [20]): 271 U/l
CK activity, 14 days storage at 35° C. (creatine kinase (CK) [4]; [20]): 267 U/l
CK functional stability, 35° C. compared to 2 to 8° C. (creatine kinase (CK) [4]; [20]): 98.5%
CK activity, 14 days storage at 2 to 8° C. (creatine kinase (CK) [4]; [21]): 523 U/l
CK activity, 14 days storage at 35° C. (creatine kinase (CK) [4]; [21]): 503 U/l
CK functional stability, 35° C. compared to 2 to 8° C. (creatine kinase (CK) [4]; [21]): 96.2%
CK activity, 14 days storage at 2 to 8° C. (creatine kinase (CK) [4]; [22]): 260 U/l
CK activity, 14 days storage at 35° C. (creatine kinase (CK) [4]; [22]): 272 U/l
CK functional stability, 35° C. compared to 2 to 8° C. (creatine kinase (CK) [4]; [22]): 104.4%
CK activity, 14 days storage at 2 to 8° C. (creatine kinase (CK) [4]; [23]): 505 U/l
CK activity, 14 days storage at 35° C. (creatine kinase (CK) [4]; [23]): 521 U/l
CK functional stability, 35° C. compared to 2 to 8° C. (creatine kinase (CK) [4]; [23]): 103.1%
CK activity, Sample 1 (creatine kinase (CK) [5]; R1 stress 14 days 2-8° C.): 238 U/l
CK activity, Sample 2 (creatine kinase (CK) [5]; R1 stress 14 days 2-8° C.): 509 U/l
recovery sample 1 (vs. fresh reagent) (creatine kinase (CK) [5]; R1 stress 14 days 2-8° C.): 100.8%
recovery sample 2 (vs. fresh reagent) (creatine kinase (CK) [5]; R1 stress 14 days 2-8° C.): 99.5%
CK activity, Sample 1 (creatine kinase (CK) [5]; R1 stress 14 days 35° C.): 227 U/l
CK activity, Sample 2 (creatine kinase (CK) [5]; R1 stress 14 days 35° C.): 486 U/l
recovery sample 1 (vs. fresh reagent) (creatine kinase (CK) [5]; R1 stress 14 days 35° C.): 96.2%
recovery sample 2 (vs. fresh reagent) (creatine kinase (CK) [5]; R1 stress 14 days 35° C.): 94.7%

O[C@H](CS)[C@H](O)CS (racemic) [DTT, dithiothreitol, reference compound]
G6P-DH activity (G6P-DH [2]; [24]): 4.67 U/ml
G6P-DH activity relative to day 0 (G6P-DH [2]; [24]): 100.0%
G6P-DH activity (G6P-DH [2]; [25]): 2.81 U/ml
G6P-DH activity relative to day 0 (G6P-DH [2]; [25]): 60.2%
G6P-DH activity (G6P-DH [2]; [26]): 2.69 U/ml
G6P-DH activity relative to day 0 (G6P-DH [2]; [26]): 57.6%
G6P-DH activity (G6P-DH [2]; [27]): 2.07 U/ml
G6P-DH activity relative to day 0 (G6P-DH [2]; [27]): 44.4%
G6P-DH activity (G6P-DH [2]; [28]): 1.55 U/ml
G6P-DH activity relative to day 0 (G6P-DH [2]; [28]): 33.1%
G6P-DH activity (G6P-DH [2]; [29]): 0.52 U/ml
G6P-DH activity relative to day 0 (G6P-DH [2]; [29]): 11.1%
G6P-DH activity (G6P-DH [2]; [30]): 0.29 U/ml
G6P-DH activity relative to day 0 (G6P-DH [2]; [30]): 6.2%
